Reference: patent US20220042033A1, “COMPOSITION AND METHOD FOR CONFERRING AND/OR ENHANCING TOLERANCE AGAINST HERBICIDES BY USING VARIANTS OF PPO” (FarmHannong Co., Ltd., priority 2017, published 2022)

Legend:
[1] = target: Auxenochlorella protothecoides ApPPO1 (SEQ ID NO: 1) variant R140A, fused to MBP (Auxenochlorella protothecoides, UniProt A0A087SQM0, R140A); experiment: PPO enzyme inhibition assay (IC50), MBP-fused PPO; assay type: biochemical
Method: (§1) Thus, PPO proteins of wild type and variants were expressed as fused to MBP and were used for experiments.
(§2) The following process for purification of PPO protein was performed in a 4° C. cold room. […] The column was washed with 3 column volumes of buffer and the presence of protein in the washing solution was examined. When the protein was no longer detected, the washing procedure was terminated. Then, the MBP-PPO protein was eluted with approximately 2 column volumes of buffer containing 20 mM maltose. The protein concentration of each eluent was determined and the elution was stopped when the protein was no longer detected. Ten microliter of each fraction was investigated for protein quantification and SDS-PAGE analysis. […]
(§3) Hundred and eighty microliters of a reaction mixture containing the purified PPO protein were placed in 96 well plates and 20 μl of purified PPO proteins were added. […] The reaction proceeded at room temperature for 30 min and the fluorescence of protoporphyrin IX was measured using Microplate reader (Sense, Hidex) (excitation: 405 nm; emission: 633 nm). […] To this, 2.7 N HCl was added, and the absorbance at 408 nm was measured. A standard curve was generated using standard protoporphyrin IX, and PPO activity was measured by calibration of protoporphyrin IX using the standard curve of protoporphyrin IX.

[2] = target: Auxenochlorella protothecoides ApPPO1 (SEQ ID NO: 1) variant F209A, fused to MBP (Auxenochlorella protothecoides, UniProt A0A087SQM0, F209A); experiment: PPO enzyme inhibition assay (IC50), MBP-fused PPO; assay type: biochemical
Method: as §1, §2, §3

[3] = target: Auxenochlorella protothecoides ApPPO1 (SEQ ID NO: 1) variant V213C, fused to MBP (Auxenochlorella protothecoides, UniProt A0A087SQM0, V213C); experiment: biochemical
Method: as §1, §2, §3

[4] = target: Auxenochlorella protothecoides ApPPO1 (SEQ ID NO: 1) variant A215C, fused to MBP (Auxenochlorella protothecoides, UniProt A0A087SQM0, A215C); experiment: PPO enzyme inhibition assay (IC50), MBP-fused PPO; assay type: biochemical
Method: as §1, §2, §3

[5] = target: Auxenochlorella protothecoides ApPPO1 (SEQ ID NO: 1) variant F386V, fused to MBP (Auxenochlorella protothecoides, UniProt A0A087SQM0, F386V); experiment: PPO enzyme inhibition assay (IC50), MBP-fused PPO; assay type: biochemical
[6] = target: T1, Myxococcus xanthus MxPPO (SEQ ID NO: 3) variant R95A, fused to MBP (Myxococcus xanthus, UniProt P56601, R95A); experiment: biochemical
T1 construct: For encoding the PPO protein (MxPPO); made in house; host or cells: BL21 CodonPlus(DE3) E. coli

[7] = target: T2, Myxococcus xanthus MxPPO (SEQ ID NO: 3) variant V164A, fused to MBP (Myxococcus xanthus, UniProt P56601, V164A); experiment: PPO enzyme inhibition assay (IC50), MBP-fused PPO (Table 15); assay type: biochemical
T2 construct: For encoding the PPO protein (MxPPO); made in house; host or cells: BL21 CodonPlus(DE3) E. coli

[8] = target: T3, Myxococcus xanthus MxPPO (SEQ ID NO: 3) variant I168C, fused to MBP (Myxococcus xanthus, UniProt P56601, I168C); experiment: as above; assay type: biochemical
T3 construct: For encoding the PPO protein (MxPPO); made in house; host or cells: BL21 CodonPlus(DE3) E. coli

[9] = target: T4, Myxococcus xanthus MxPPO (SEQ ID NO: 3) variant A170L, fused to MBP (Myxococcus xanthus, UniProt P56601, A170L); experiment: biochemical
T4 construct: made in house; host or cells: BL21 CodonPlus(DE3) E. coli
Method: as §1
In order to express wild type and variant proteins of ApPPO1 and MxPPO, those genes were introduced into pMAL-c2x vector (refer to FIG. 25), respectively.
as §2
Hundred and eighty microliters of a reaction mixture containing the purified PPO protein were placed in 96 well plates and 20 μl of purified PPO proteins were added. […] The reaction proceeded at room temperature for 30 min and the fluorescence of protoporphyrin IX was measured using Microplate reader (Sense, Hidex) (excitation: 405 nm; emission: 633 nm). […] To this, 2.7 N HCl was added, and the absorbance at 408 nm was measured. […]

[10] = system: E. coli BT3(ΔPPO) transformed with Auxenochlorella protothecoides ApPPO1 (SEQ ID NO: 1) variant A215C (AC); experiment: Herbicide tolerance test in PPO-deficient E. coli BT3(ΔPPO), growth on plates; assay type: cell-based; conditions: Table 7, light, 37° C., 16 to 20 hours, vs wild type at highest herbicide concentration
Method: (§4) The mutated CyPPO gene obtained from the Example 2 was transformed to BT3 (ΔPPO) strain which is deficient of PPO activity and cultured in LB media with PPO-inhibiting herbicide, thereby examining whether growth of transformed BT3 was not inhibited.
(§5) BT3 competent cells were transformed with the pET303-ApPPO1 and pET303-MxPPO plasmids and those with a mutation(s) constructed in Example 2 respectively, and were cultured in LB agar media containing carbenicillin (Gold Biotechnology, Co., Ltd.).
(§6) Single colony of E. coli transformed with each CyPPO gene was cultured in 3 ml of LB broth containing carbenicillin overnight, and then was subcultured until absorbance (OD600) reached 0.5 to 1. Then, it was diluted with LB broth to OD600=0.5. Again, the diluted solution was serially diluted 4 times by a factor of one tenth.
(§7) The LB agar media (LB 25 g/l, Bacto agar 15 g/l) containing carbenicillin (100 μg/ml) and 0 to 4,000 μM of various herbicides dissolved in DMSO was prepared. Next, 10 μl of each diluted solution was dropped on the plate and cultured at 37° C. under light (Tables 7, 9 and 10, FIGS. 2 to 6, 13 to 20) or dark (Tables 8 and 11, FIGS. 7 to 12, 21 to 24) for 16 to 20 hours. Then, the extent of tolerance was evaluated.
(§8) The extent of herbicide tolerance of the ApPPO1 or MxPPO mutated genes was evaluated by comparing that of mutated genes with that of ApPPO1 or MxPPO wild type. The relative tolerance was represented with “+” as a factor of 10 times.
(§9) In Tables 7 to 11, tolerance level was presented as ‘−’ of tolerance of wild type and of variants equivalent to that of wild type, and was done as ‘+’ per each 10 fold resistance until ‘+++++’ as maximal resistance. […] A dilution series (OD600=0.5, 0.05, 0.005, 0.0005, 0.00005) was made and spotted on LB agar plates supplemented with herbicides.

[11] = system: E. coli BT3(ΔPPO) transformed with Auxenochlorella protothecoides ApPPO1 (SEQ ID NO: 1) variant V360M (VM); experiment: as above; assay type: cell-based; conditions: Table 7, light, 37° C., 16 to 20 hours, vs wild type at highest herbicide concentration
Method: as §4, §5, §6, §7, §8, §9

[12] = system: E. coli BT3(ΔPPO) transformed with Auxenochlorella protothecoides ApPPO1 (SEQ ID NO: 1) variant Y422T (YT); experiment: as above; assay type: cell-based; conditions: Table 7, light, 37° C., 16 to 20 hours, vs wild type at highest herbicide concentration
Method: as §4, §5, §6, §7, §8, §9

[13] = system: E. coli BT3(ΔPPO) transformed with Auxenochlorella protothecoides ApPPO1 (SEQ ID NO: 1) variant Y422L (YL); experiment: as above; assay type: cell-based; conditions: Table 7, light, 37° C., 16 to 20 hours, vs wild type at highest herbicide concentration
Method: as §4, §5, §6, §7, §8, §9

[14] = system: E. coli BT3(ΔPPO) transformed with Myxococcus xanthus MxPPO (SEQ ID NO: 3) variant M365I; experiment: as above; assay type: cell-based; conditions: Table 9, light, tiafenacil to 2000 μM, saflufenacil to 200 μM, flumioxazin to 100 μM
Method: as §4, §5, §6, §7
(§10) The extent of herbicide tolerance of the ApPPO1 or MxPPO mutated genes was evaluated by comparing that of mutated genes with that of ApPPO1 or MxPPO wild type. […]

[15] = system: E. coli BT3(ΔPPO) transformed with Myxococcus xanthus MxPPO (SEQ ID NO: 3) variant M365L; experiment: as above; assay type: cell-based; conditions: Table 9, light, tiafenacil to 2000 μM, saflufenacil to 200 μM, flumioxazin to 100 μM
Method: as §4, §5, §6, §7, §10

[16] = system: wild type A. thaliana (Col-0 ecotype); experiment: Herbicide spray test on 4-week-old plants, wild type; assay type: in vivo, Arabidopsis thaliana; conditions: 100 ml of 1 μM tiafenacil and 0.05% Silwet L-77 per 0.24 m^2; within 7 days
Method: In order to examine PPO-inhibiting herbicide tolerance of the transgenic plants, 4-week-old plants were evenly sprayed with herbicide (100 ml of 1 μM tiafenacil and 0.05% Silwet L-77 (v/v)) in 40×60 cm area (0.24 m^2).

[17] = system: transgenic A. thaliana transformed with ApPPO1 variants, MxPPO or MxPPO variants; experiment: Herbicide spray test on 4-week-old plants, transgenic; assay type: in vivo, Arabidopsis thaliana; conditions: 100 ml of 1 μM tiafenacil and 0.05% Silwet L-77 per 0.24 m^2
Description: A. thaliana was transformed with a binary vector having ORF of a selectable marker, Bar gene (glufosinate-tolerant gene), and ORF of each gene of ApPPO1 variants, MxPPO, and MxPPO variants. The transgenic plant was examined for cross-tolerance towards glufosinate and PPO-inhibiting herbicides. The bar gene was also used to examine whether the transgene was stably inherited during generations. NOS promoter and E9 terminator were used for bar gene expression.
In order to express proteins of ApPPO1 variants, MxPPO, and MxPPO variants in plants, a CaMV35S promoter and a NOS terminator were used. Encoding genes of ApPPO1 variants, MxPPO, and MxPPO variants were introduced into binary vector using XhoI and BamHI restriction enzymes. Furthermore, for confirmation of the protein expression, hemagglutinin (HA) tag was fused to the C-terminal region of PPO protein coding gene using BamHI and SacI restriction enzymes. […]
Each transformed Agrobacterium was screened in spectinomycin-containing LB media. […] After Agrobacterium cell was harvested from the culture media, it was resuspended in the solution containing 5% sucrose (w/v) and 0.05% Silwet L-77 (v/v) (Momentive Performance Materials Co., Ltd.) at an absorbance (OD600) of 0.8. […]

Auxenochlorella protothecoides ApPPO1 (SEQ ID NO: 1) variant V213C, fused to MBP, sequence (A0A087SQM0 entry or part of it V213C): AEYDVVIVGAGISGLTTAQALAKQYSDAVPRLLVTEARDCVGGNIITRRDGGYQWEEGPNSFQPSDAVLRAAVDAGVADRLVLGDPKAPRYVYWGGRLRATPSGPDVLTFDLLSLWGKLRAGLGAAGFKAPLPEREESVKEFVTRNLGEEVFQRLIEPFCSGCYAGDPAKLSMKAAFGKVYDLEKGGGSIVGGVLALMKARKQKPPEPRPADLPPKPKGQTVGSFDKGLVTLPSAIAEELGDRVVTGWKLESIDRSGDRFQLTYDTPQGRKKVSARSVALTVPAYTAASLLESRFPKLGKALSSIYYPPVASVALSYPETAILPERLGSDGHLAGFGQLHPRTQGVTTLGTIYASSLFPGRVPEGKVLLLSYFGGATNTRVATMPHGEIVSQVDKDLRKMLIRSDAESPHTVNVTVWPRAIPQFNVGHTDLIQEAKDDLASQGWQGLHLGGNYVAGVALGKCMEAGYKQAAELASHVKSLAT
T1 sequence (P56601 whole entry R95A, the tested form may be a part): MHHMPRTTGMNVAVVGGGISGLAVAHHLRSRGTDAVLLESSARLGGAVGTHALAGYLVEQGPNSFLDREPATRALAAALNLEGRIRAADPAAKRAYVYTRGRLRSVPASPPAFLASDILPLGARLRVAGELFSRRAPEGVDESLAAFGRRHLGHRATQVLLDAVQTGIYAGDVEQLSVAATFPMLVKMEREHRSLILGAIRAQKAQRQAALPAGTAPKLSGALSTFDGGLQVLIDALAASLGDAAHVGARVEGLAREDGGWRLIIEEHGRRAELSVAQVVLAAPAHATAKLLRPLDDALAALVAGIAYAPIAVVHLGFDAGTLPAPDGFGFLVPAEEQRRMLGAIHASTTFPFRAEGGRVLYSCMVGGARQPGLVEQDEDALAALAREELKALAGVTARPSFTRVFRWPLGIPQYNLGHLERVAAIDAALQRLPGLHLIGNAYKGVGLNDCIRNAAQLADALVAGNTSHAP
T3 sequence (P56601 whole entry I168C, the tested form may be a part): as the sequence (P56601 whole entry R95A, the tested form may be a part) above, with A95R, I168C counted along it
Auxenochlorella protothecoides ApPPO1 (SEQ ID NO: 1) variant F386V, fused to MBP, sequence (A0A087SQM0 entry or part of it F386V): as the sequence (A0A087SQM0 entry or part of it V213C) above, with C163V, F336V counted along it
Auxenochlorella protothecoides ApPPO1 (SEQ ID NO: 1) variant R140A, fused to MBP, sequence (A0A087SQM0 entry or part of it R140A): as the sequence (A0A087SQM0 entry or part of it V213C) above, with R90A, C163V counted along it
T4 sequence (P56601 whole entry A170L, the tested form may be a part): as the sequence (P56601 whole entry R95A, the tested form may be a part) above, with A95R, A170L counted along it
Auxenochlorella protothecoides ApPPO1 (SEQ ID NO: 1) variant A215C, fused to MBP, sequence (A0A087SQM0 entry or part of it A215C): as the sequence (A0A087SQM0 entry or part of it V213C) above, with C163V, A165C counted along it
Auxenochlorella protothecoides ApPPO1 (SEQ ID NO: 1) variant F209A, fused to MBP, sequence (A0A087SQM0 entry or part of it F209A): as the sequence (A0A087SQM0 entry or part of it V213C) above, with F159A, C163V counted along it
T2 sequence (P56601 whole entry V164A, the tested form may be a part): as the sequence (P56601 whole entry R95A, the tested form may be a part) above, with A95R, V164A counted along it

## COC(=O)CCNC(=O)C(C)Sc1cc(-n2c(=O)cc(C(F)(F)F)n(C)c2=O)c(F)cc1Cl (centres unmarked) [tiafenacil]
[1]
  IC50: 86 nM
[2]
  IC50: 69 nM
[3]
  IC50: 81 nM
[4]
  IC50: 76 nM
[5]
  IC50: 368 nM
[6]
  IC50: 2370 nM
[7]
  IC50: 367 nM
[8]
  IC50: 550 nM
[9]
  IC50: > 5000 nM
[10]
  relative herbicide tolerance level: + (1-9 fold higher tolerance)
[11]
  relative herbicide tolerance level: ++ (10-99 fold higher tolerance)
[12]
  relative herbicide tolerance level: ++ (10-99 fold higher tolerance)
[13]
  relative herbicide tolerance level: ++ (10-99 fold higher tolerance)
[14]
  relative herbicide tolerance level: + (1-9 fold higher tolerance)
[15]
  relative herbicide tolerance level: + (1-9 fold higher tolerance)
[16]
  plant damage after spraying: completely died within 7 days after treatment
[17]
  plant damage after spraying: no damage
